Assay: xn = mol fraction of the nth substance listed
Conditions: 101.3 kPa

NC1CCCCC1 + CCCCCCCCn1cc[n+](C)c1.F[B-](F)(F)F
x2 = 0
Conditions	speed of sound [m/s]
293.15 K	1430
303.15 K	1387
323.15 K	1302

NC1CCCCC1 + CCCCCC[n+]1ccn(C)c1.F[B-](F)(F)F
x2 = 0
Conditions	speed of sound [m/s]
293.15 K	1430
298.15 K	1409
303.15 K	1387
308.15 K	1366
313.15 K	1344
318.15 K	1323
323.15 K	1302

NC1CCCCC1 + CCCC[n+]1ccn(C)c1.F[B-](F)(F)F
speed of sound [m/s]
Conditions	x2 = 0	x2 = 0.0982	x2 = 0.2032	x2 = 0.301	x2 = 0.4012	x2 = 0.4828	x2 = 0.6016	x2 = 0.7124	x2 = 0.8012	x2 = 0.9024
293.15 K	–	1442	1456	1469	1484	1496	1514	1532	1545	–
298.15 K	1409	1420	1435	1450	–	1479	–	1517	1533	1549
303.15 K	1387	1400	1415	1431	1448	1462	1484	–	1520	1538
308.15 K	–	1380	1395	1412	1430	1445	1467	1488	1506	1525
313.15 K	1344	1360	1376	–	1413	1428	1452	1474	1493	–
318.15 K	1323	1340	1357	–	1396	1412	1436	1460	1479	1501
323.15 K	–	1320	1338	1356	1378	1395	–	1446	1466	1489

CCCCCCCCn1cc[n+](C)c1.F[B-](F)(F)F + NC1CCCCC1
speed of sound [m/s]
Conditions	x1 = 0.1076	x1 = 0.203	x1 = 0.3072	x1 = 0.4001	x1 = 0.492	x1 = 0.6078	x1 = 0.7023	x1 = 0.7996	x1 = 0.8963
293.15 K	–	1453	–	1470	–	1480	1486	1490	–
298.15 K	1423	–	1445	1452	1459	1465	–	1475	1480
303.15 K	–	–	1427	1435	1443	1450	1455	1460	1466
308.15 K	1382	1396	–	1418	1426	1435	1440	1446	1452
313.15 K	1362	1377	1391	1401	–	1419	1426	1432	1439
318.15 K	1342	1358	–	–	1394	–	–	1418	1426
323.15 K	–	1340	1355	1368	1377	1388	1396	1405	–

CCCCCC[n+]1ccn(C)c1.F[B-](F)(F)F + NC1CCCCC1
speed of sound [m/s]
Conditions	x1 = 0.097	x1 = 0.1808	x1 = 0.2945	x1 = 0.396	x1 = 0.5009	x1 = 0.6048	x1 = 0.7029	x1 = 0.8008	x1 = 0.8991
293.15 K	1440	1452	1465	–	1486	1496	1505	–	1522
298.15 K	–	–	1446	1458	1469	1480	1490	1499	–
303.15 K	1400	1411	1427	1440	1453	–	1475	1485	1496
308.15 K	1379	1392	1408	1422	1435	1449	1460	–	–
313.15 K	–	1371	1389	1404	1418	–	1445	1457	1470
318.15 K	1337	1351	1370	1385	1402	1417	1430	1444	–
323.15 K	1316	1331	–	–	–	1401	–	1430	1444
